# Laboratory results reported in PubChem BioAssay AID1963836 (Molecular Pharmacology Branch, DTP, NCI, 2024).
# Tested on: 857933-349-R-J2-PDC complex spheroid viability
# Assay: Anticancer human tumor 857933-349-R-J2-PDC patient-derived colon adenocarcinoma cell line growth inhibition [POLQ]
# Details: for IC50: curve of first compound; for viability, T/C: stronger effect = lower value
# Experimental: Multicellular complex tumor spheroid response to Polymerase (POL) inhibitors (novobiocin, ART-558, RP6685) in combination with a variety of drugs and investigational agents in selected tumor cell lines
# The POL inhibitors (novobiocin, ART-558, and RP6685) were evaluated both individually and in combination with standard of care and investigational anticancer small molecules within a complex spheroid model of solid tumors. . Complex spheroids include a stromal component modeled by human endothelial cells (HUVEC) and fibroblasts modeled by human mesenchymal stem cells (MSCs). The concentration ranges selected for each drug and investigational agent were based upon clinically achievable concentrations if the clinical Cmax of the agent was known.
# Compounds. The drugs and investigational agents: novobiocin (NSC847541), ART-558 (NSC835418), RP-6685 (NSC848927), peposertib (NSC802822), ceralasertib (NSC780249), elimusertib (NSC800525), camonsertib (NSC841442), AZD-1390 (NSC803789), olaparib (NSC753686), talazoparib (NSC767125), rucaparib (NSC756644), sotorasib (NSC818433), MRTX-1133 (NSC836407), SN-38 (NSC673596), topotecan (NSC609699), epotoside (NSC141540), doxorubicin (NSC123127), gemcitabine (NSC613327), 5-fluorouracil (NSC19893), paclitaxel (NSC125973), vemurafenib (NSC761431), MSA-2 (NSC828583), SN-011 (NSC837082), adavosertib (NSC754352), prexasertib (NSC758257), carboplatin (NSC241240) and oxaliplatin (NSC266046), were obtained from the National Cancer Institute (NCI) Developmental Therapeutics Program Chemical Repository (21). The FDA-approved anticancer drug set is available from the Developmental Therapeutics Program at https://dtp.cancer.gov/organization/dscb/obtaining/. […] The stock solutions were prepared in dimethyl sulfoxide (DMSO, Sigma-Aldrich, St. Louis, MO, cat. D2650), except for the platinum compounds which were prepared in saline (Quality Biological, Gaithersburg, MD, cat. 114-055-101), at 800-fold the tested concentration and stored at -70 degrees C prior to their use. All drugs and investigational agents were tested over a range starting from a high concentration at or near the clinical Cmax and decreasing in half-log increments. If the clinical Cmax for an agent had not been determined, the highest concentration tested was 10 microM, except for SN-38, which was tested at a high concentration of 1 microM.
# Cell Culture. All cells were maintained in an incubator at 37 degrees C and 5% CO2 with 95% humidity. The PDC lines were cultured according to standard operating procedures established by the NCI PDMR (https://pdmr.cancer.gov). Table 3 of the manuscript, lists the cell lines along with the number of the three cell types plated to form the mct-spheroids and media for tumor cell growth. After thawing, all PDC lines, except 997537-175-T-J1-PDC and 415267-285-R-J2-PDC, were cultured in Matrigel-coated flasks prepared with a working solution of 1X Ham's F-12 nutrient mix, without supplementation (Thermo Fisher Scientific, cat. 11765054), 100 U/mL penicillin-streptomycin (Thermo Fisher Scientific, cat. 15140122), and 2.5% Matrigel (Corning Inc., Corning, NY, cat. 354248) for the first three passages. The two PDC lines 997537-175-T-J1-PDC and 415267-285-R-J2-PDC were cultured on uncoated flasks. The 857933-349-R-J2-PDC line was cultured in 6C/Colon 1B media containing advanced DMEM/F-12 (Thermo Fisher Scientific, cat. 12634028), 10 mM HEPES (Thermo Fisher Scientific, cat. 15630080), 1X GlutaMAX supplement (Thermo Fisher Scientific, cat. 35050061), 0.1 mg/mL primocin (InvivoGen, San Diego, CA, cat. ant-pm-2), 10% defined fetal bovine serum, heat inactivated (HyClone Laboratories Inc., Logan, UT, cat. SH30070.03HI), 50% L-WRN conditioned media (ATCC, cat. CRL-3276), 1.25 mM N-Acetyl-L-cysteine (Sigma-Aldrich, cat. A9165), 10 mM nicotinamide (Sigma-Aldrich, cat. N0636), 1X B-27 supplement (Thermo Fisher Scientific, cat. 17504044), 1X N-2 supplement (Thermo Fisher Scientific, cat. […]
# [1] = second compound 0.0316 µM, first compound 0.0316 µM
# [2] = second compound 0.0316 µM, first compound 0.1 µM
# [3] = second compound 0.0316 µM, first compound 0.316 µM
# [4] = second compound 0.0316 µM, first compound 1 µM
# [5] = second compound 0.0316 µM, first compound 3.16 µM
# [6] = second compound 0.0316 µM, first compound 10 µM
# [7] = second compound 0.1 µM, first compound 0.0316 µM
# [8] = second compound 0.1 µM, first compound 0.1 µM
# [9] = second compound 0.1 µM, first compound 0.316 µM
# [10] = second compound 0.1 µM, first compound 1 µM
# [11] = second compound 0.1 µM, first compound 3.16 µM
# [12] = second compound 0.1 µM, first compound 10 µM
# [13] = second compound 0.316 µM, first compound 0.0316 µM
# [14] = second compound 0.316 µM, first compound 0.1 µM
# [15] = second compound 0.316 µM, first compound 0.316 µM
# [16] = second compound 0.316 µM, first compound 1 µM
# [17] = second compound 0.316 µM, first compound 3.16 µM
# [18] = second compound 0.316 µM, first compound 10 µM
# [19] = second compound 1 µM, first compound 0.0316 µM
# [20] = second compound 1 µM, first compound 0.1 µM
# [21] = second compound 1 µM, first compound 0.316 µM
# [22] = second compound 1 µM, first compound 1 µM
# [23] = second compound 1 µM, first compound 3.16 µM
# [24] = second compound 1 µM, first compound 10 µM
# [25] = second compound 3.16 µM, first compound 0.0316 µM
# [26] = second compound 3.16 µM, first compound 0.1 µM
# [27] = second compound 3.16 µM, first compound 0.316 µM
# [28] = second compound 3.16 µM, first compound 1 µM
# [29] = second compound 3.16 µM, first compound 3.16 µM
# [30] = second compound 3.16 µM, first compound 10 µM
# [31] = second compound 10 µM, first compound 0.0316 µM
# [32] = second compound 10 µM, first compound 0.1 µM
# [33] = second compound 10 µM, first compound 0.316 µM
# [34] = second compound 10 µM, first compound 1 µM
# [35] = second compound 10 µM, first compound 3.16 µM
# [36] = second compound 10 µM, first compound 10 µM
# 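Further: spheroids exposed to compounds for seven days before readout.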
smiles,measurement,setting,value
CC(C)n1c(=O)n(C)c2cnc3cc(F)c(-c4ccc(OCCCN5CCCCC5)nc4)cc3c21 + COC1C(OC(N)=O)C(O)C(Oc2ccc3c(O)c(NC(=O)c4ccc(O)c(CC=C(C)C)c4)c(=O)oc3c2C)OC1(C)C,IC50,second compound 0.0316 µM,> 10 µM
same,IC50,second compound 0.1 µM,> 10 µM
same,IC50,second compound 0.316 µM,> 10 µM
same,IC50,second compound 1 µM,> 10 µM
same,IC50,second compound 3.16 µM,> 10 µM
same,IC50,second compound 10 µM,> 10 µM
same,"viability, T/C",[1],102%
same,"viability, T/C",[2],108%
same,"viability, T/C",[3],97.3%
same,"viability, T/C",[4],105%
same,"viability, T/C",[5],109%
same,"viability, T/C",[6],111%
same,"viability, T/C",[7],113%
same,"viability, T/C",[8],118%
same,"viability, T/C",[9],100%
same,"viability, T/C",[10],95%
same,"viability, T/C",[11],121%
same,"viability, T/C",[12],100%
same,"viability, T/C",[13],87.2%
same,"viability, T/C",[14],120%
same,"viability, T/C",[15],93.1%
same,"viability, T/C",[16],85.1%
same,"viability, T/C",[17],84.1%
same,"viability, T/C",[18],105%
same,"viability, T/C",[19],74.4%
same,"viability, T/C",[20],110%
same,"viability, T/C",[21],103%
same,"viability, T/C",[22],98.3%
same,"viability, T/C",[23],87.8%
same,"viability, T/C",[24],122%
same,"viability, T/C",[25],110%
same,"viability, T/C",[26],112%
same,"viability, T/C",[27],111%
same,"viability, T/C",[28],89%
same,"viability, T/C",[29],122%
same,"viability, T/C",[30],123%
same,"viability, T/C",[31],89.6%
same,"viability, T/C",[32],115%
same,"viability, T/C",[33],106%
same,"viability, T/C",[34],104%
same,"viability, T/C",[35],85.7%
same,"viability, T/C",[36],114%
CCc1cc2c(N3CCc4c(cc(Cn5ccnc5)cc4-c4cn(C)nc4C(F)(F)F)C3=O)cc(C)nc2c(OC)n1 + COC1C(OC(N)=O)C(O)C(Oc2ccc3c(O)c(NC(=O)c4ccc(O)c(CC=C(C)C)c4)c(=O)oc3c2C)OC1(C)C,IC50,second compound 0.0316 µM,> 10 µM
same,IC50,second compound 0.1 µM,> 10 µM
same,IC50,second compound 0.316 µM,> 10 µM
same,IC50,second compound 1 µM,> 10 µM
same,IC50,second compound 3.16 µM,> 10 µM
same,IC50,second compound 10 µM,> 10 µM
same,"viability, T/C",[1],116%
same,"viability, T/C",[2],80.3%
same,"viability, T/C",[3],72.3%
same,"viability, T/C",[4],61.8%
same,"viability, T/C",[5],68.5%
same,"viability, T/C",[6],56.2%
same,"viability, T/C",[7],97.5%
same,"viability, T/C",[8],77.6%
same,"viability, T/C",[9],95.5%
same,"viability, T/C",[10],58.6%
same,"viability, T/C",[11],68.2%
same,"viability, T/C",[12],52.9%
same,"viability, T/C",[13],117%
same,"viability, T/C",[14],88.3%
same,"viability, T/C",[15],75.3%
same,"viability, T/C",[16],61.7%
same,"viability, T/C",[17],82.9%
same,"viability, T/C",[18],67.5%
same,"viability, T/C",[19],102%
same,"viability, T/C",[20],95.3%
same,"viability, T/C",[21],78.8%
same,"viability, T/C",[22],60.2%
same,"viability, T/C",[23],52.8%
same,"viability, T/C",[24],57.7%
same,"viability, T/C",[25],77.7%
same,"viability, T/C",[26],76.1%
same,"viability, T/C",[27],89.7%
same,"viability, T/C",[28],80.1%
same,"viability, T/C",[29],57.5%
same,"viability, T/C",[30],68.3%
same,"viability, T/C",[31],71.3%
same,"viability, T/C",[32],86.3%
same,"viability, T/C",[33],72.7%
same,"viability, T/C",[34],71.3%
same,"viability, T/C",[35],91.8%
same,"viability, T/C",[36],58%
